Measurements: publication PMC4006130 (Pflugers Archiv, 2013)

Molecular target: NHE1 (Rattus norvegicus, UniProt P26431)
Assay: BCECF intracellular pH recovery after ammonium prepulse
Type: cell-based

NHE1, sequence (P26431 whole entry): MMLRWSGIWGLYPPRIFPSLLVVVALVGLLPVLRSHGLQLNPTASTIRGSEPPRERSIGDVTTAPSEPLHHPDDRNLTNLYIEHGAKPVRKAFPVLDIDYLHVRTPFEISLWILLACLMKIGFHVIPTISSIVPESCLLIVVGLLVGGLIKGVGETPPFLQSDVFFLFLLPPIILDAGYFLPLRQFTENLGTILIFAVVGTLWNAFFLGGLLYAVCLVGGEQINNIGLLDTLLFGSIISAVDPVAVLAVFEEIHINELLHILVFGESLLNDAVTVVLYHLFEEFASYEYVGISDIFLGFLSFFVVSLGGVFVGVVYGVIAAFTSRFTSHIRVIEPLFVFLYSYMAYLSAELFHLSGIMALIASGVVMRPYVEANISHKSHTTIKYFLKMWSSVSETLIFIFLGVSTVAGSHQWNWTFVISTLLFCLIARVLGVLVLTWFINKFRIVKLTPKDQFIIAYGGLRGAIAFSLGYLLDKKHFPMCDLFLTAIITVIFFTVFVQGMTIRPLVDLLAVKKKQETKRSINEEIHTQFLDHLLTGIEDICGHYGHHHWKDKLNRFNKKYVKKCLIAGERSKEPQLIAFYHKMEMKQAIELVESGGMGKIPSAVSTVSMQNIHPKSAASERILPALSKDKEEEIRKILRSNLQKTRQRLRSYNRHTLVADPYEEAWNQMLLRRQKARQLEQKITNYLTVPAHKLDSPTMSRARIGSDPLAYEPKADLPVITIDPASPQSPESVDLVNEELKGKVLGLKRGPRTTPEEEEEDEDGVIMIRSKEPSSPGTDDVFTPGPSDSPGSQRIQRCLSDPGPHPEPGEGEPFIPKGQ

IC50: 1.1 µM
SMILES: CC(C)c1ccc(C(=O)NC(=N)N)cc1S(C)(=O)=O [cariporide]
